Measurements taken from patent US8686044B2, “Amide derivative, pest control agent containing the amide derivative, and use of the amide derivative” (Mitsui Chemicals Agro, Inc., priority 2008, dated 2014).

Tests used:
Type in all cases: in vivo
[1] = tested on: Helicoverpa armigera; test: Pesticidal test against Helicoverpa armigera (cabbage leaf disk dip); conditions: foliar, 72 h, concentration 1 ppm, 2-stage larvae, examined after 3 days, 25° C., read-out: pesticidal rate
Experimental: Pesticidal Test against Helicoverpa armigera A cabbage leaf disk was immersed for 30 seconds in a chemical solution in which a test compound had been prepared at a predetermined concentration, and air-dried. The leaf disk was put into a 6-hole plastic cup having a filter paper laid on the bottom thereof, and 2-stage larvae of Helicoverpa armigera were released with one insect being released per hole. They were left to stand in a thermostatic chamber at 25° C., and the numbers of the living pests and the dead pests were examined after 3 days. The test was carried out with five larvae per group in two replicates. Further, the above compound (A) was used as a comparative compound.

[2] = tested on: Plutella xylostella; test: Pesticidal test against Plutella xylostella (cabbage leaf dip); conditions: foliar, 144 h, concentration 1 ppm, 2-stage larvae, examined after 6 days, 25° C., read-out: pesticidal rate
Summary of the method: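 Cabbage leaf pieces dipped 30 s in test solution at a predetermined concentration, air-dried, then offered to 2nd-instar larvae, five per group in duplicate. Held at 25° C; living and dead larvae counted after 6 days.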

[3] = tested on: Choristoneura magnanima; test: Pesticidal test against Choristoneura magnanima (artificial feed dip); conditions: 144 h, 2-stage larvae, examined after 6 days, 25° C., read-out: pesticidal rate; for pest or weed control at 1 ppm: concentration 1 ppm; for pest or weed control at 10 ppm: concentration 10 ppm
Experimental: (§1) Pesticidal Test against Choristoneura magnanima A thinly sliced artificial feed was immersed for 30 seconds in a chemical solution in which a test compound had been prepared at a predetermined concentration, and air-dried, and then put into a 7 cm polyethylene cup having a filter paper laid on the bottom thereof, and 2-stage larvae of Choristoneura magnanima were released. They were left to stand in a thermostatic chamber at 25° C., and the numbers of the living pests and the dead pests were examined after 6 days. The test was carried out with five larvae per group in two replicates. Further, the above compound (A) was used as a comparative compound.

[4] = tested on: Spodoptera litura; test: Pesticidal test against Spodoptera litura (cabbage leaf dip); conditions: foliar, 144 h, concentration 1 ppm, 2-stage larvae, examined after 6 days, 25° C., read-out: pesticidal rate
Summary of the method: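 Cabbage leaf pieces dipped 30 seconds in compound solution at a predetermined concentration and air-dried, then offered to second-stage larvae, five per group in two replicates. Held at 25° C. Living and dead larvae counted after 6 days.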

[5] = tested on: Adoxophyes honmai; test: Pesticidal test against Adoxophyes honmai (artificial feed dip); conditions: 144 h, 2-stage larvae, examined after 6 days, 25° C., read-out: pesticidal rate; for pest or weed control at 1 ppm: concentration 1 ppm; for pest or weed control at 10 ppm: concentration 10 ppm
Experimental: as §1, with “Adoxophyes honmai” for “Choristoneura magnanima”

[6] = tested on: Musca domestica; test: Pesticidal test against Musca domestica (petri dish dry film); conditions: 24 h, concentration 100 ppm, female adults, examined after 1 day, 25° C., read-out: pesticidal rate
Summary of the method: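 Dry film from 1 ml acetone solution of compound at a predetermined concentration, air-dried in a 9 cm petri dish; female adult flies released and dish capped. Held at 25° C; living and dead counted after 1 day. Five insects per group, two replicates.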

[7] = tested on: Laodelphax striatellus; test: Pesticidal test against Laodelphax striatellus (rice seedling spray); conditions: 144 h, concentration 100 ppm, 3-stage larvae, examined after 6 days, 25° C., read-out: pesticidal rate
Summary of the method: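 Rice seedlings sprayed with 2.5 ml acetone solution of compound at a predetermined concentration, air-dried, then infested with third-stage Laodelphax striatellus larvae in capped water-containing tubes at 25 °C. Living and dead insects counted after 6 days; ten larvae per group, two replicates.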

N#Cc1cccc(C(=O)Nc2cccc(C(=O)Nc3c(Br)cc(C(F)(C(F)(F)F)C(F)(F)C(F)(F)F)cc3C(F)(F)F)c2)c1 (stereo not shown) [6-366]
≥ 70%: pest or weed control at 1 ppm [1] | pest or weed control at 1 ppm [2] | pest or weed control at 1 ppm [3] | pest or weed control at 1 ppm [4] | pest or weed control at 1 ppm [5] | pest or weed control at 100 ppm [6]

CN(C(=O)c1cccc(F)c1)c1cccc(C(=O)Nc2c(I)cc(C(F)(C(F)(F)F)C(F)(F)C(F)(F)F)cc2C(F)(F)F)c1F (stereo not shown) [7-1810]
≥ 70%: pest or weed control at 1 ppm [1] | pest or weed control at 1 ppm [2] | pest or weed control at 1 ppm [3] | pest or weed control at 1 ppm [4] | pest or weed control at 1 ppm [5] | pest or weed control at 100 ppm [7] | pest or weed control at 100 ppm [6]

O=C(Nc1cccc(C(=O)Nc2c(C(F)(F)F)cc(C(F)(C(F)(F)F)C(F)(F)F)cc2C(F)(F)F)c1F)c1ccccc1 [6-2110, 3-benzamide-2-fluoro-N-(4-(perfluoropropan-2-yl)-2,6-bis(trifluoromethyl)phenyl)benzamide]
≥ 70%: pest or weed control at 1 ppm [1] | pest or weed control at 1 ppm [2] | pest or weed control at 10 ppm [3] | pest or weed control at 1 ppm [4] | pest or weed control at 10 ppm [5] | pest or weed control at 100 ppm [7] | pest or weed control at 100 ppm [6]

O=C(Nc1c(I)cc(C(F)(C(F)(F)F)C(F)(F)C(F)(F)F)cc1I)c1cccc(NC(=O)c2ccccc2F)c1 (stereo not shown) [6-72]
≥ 70%: pest or weed control at 1 ppm [1] | pest or weed control at 1 ppm [2] | pest or weed control at 1 ppm [3] | pest or weed control at 1 ppm [4] | pest or weed control at 1 ppm [5] | pest or weed control at 100 ppm [7] | pest or weed control at 100 ppm [6]

CN(C(=O)c1ccccc1F)c1cccc(C(=O)Nc2c(I)cc(C(F)(C(F)(F)F)C(F)(F)C(F)(F)F)cc2C(F)(F)F)c1F (stereo not shown) [7-1809]
≥ 70%: pest or weed control at 1 ppm [1] | pest or weed control at 1 ppm [2] | pest or weed control at 1 ppm [3] | pest or weed control at 1 ppm [4] | pest or weed control at 1 ppm [5] | pest or weed control at 100 ppm [7] | pest or weed control at 100 ppm [6]

CN(C(=O)c1cccc(C#N)c1)c1cccc(C(=O)Nc2c(Br)cc(C(F)(C(F)(F)F)C(F)(F)C(F)(F)F)cc2C(F)(F)F)c1 (stereo not shown) [7-366]
≥ 70%: pest or weed control at 1 ppm [1] | pest or weed control at 1 ppm [2] | pest or weed control at 1 ppm [3] | pest or weed control at 1 ppm [4] | pest or weed control at 1 ppm [5] | pest or weed control at 100 ppm [6]

O=C(Nc1cccc(C(=O)Nc2c(Br)cc(C(F)(C(F)(F)F)C(F)(F)C(F)(F)F)cc2C(F)(F)F)c1F)c1ccc(Cl)nc1 (stereo not shown) [6-1695]
≥ 70%: pest or weed control at 1 ppm [1] | pest or weed control at 1 ppm [2] | pest or weed control at 1 ppm [3] | pest or weed control at 1 ppm [4] | pest or weed control at 10 ppm [5] | pest or weed control at 100 ppm [7] | pest or weed control at 100 ppm [6]

CN(C(=O)c1ccccc1)c1cccc(C(=O)Nc2c(I)cc(C(F)(C(F)(F)F)C(F)(F)C(F)(F)F)cc2C(F)(F)F)c1F (stereo not shown) [7-1808]
≥ 70%: pest or weed control at 1 ppm [1] | pest or weed control at 1 ppm [2] | pest or weed control at 1 ppm [3] | pest or weed control at 1 ppm [4] | pest or weed control at 1 ppm [5] | pest or weed control at 100 ppm [7] | pest or weed control at 100 ppm [6]

CN(C(=O)c1ccc(F)cc1)c1cccc(C(=O)Nc2c(I)cc(C(F)(C(F)(F)F)C(F)(F)F)cc2I)c1F [7-1263]
≥ 70%: pest or weed control at 1 ppm [1] | pest or weed control at 1 ppm [2] | pest or weed control at 1 ppm [3] | pest or weed control at 1 ppm [4] | pest or weed control at 10 ppm [5] | pest or weed control at 100 ppm [7]

O=C(Nc1cccc(C(=O)Nc2c(Br)cc(C(F)(C(F)(F)F)C(F)(F)C(F)(F)F)cc2C(F)(F)F)c1F)c1ccc(F)cc1 (stereo not shown) [6-1655]
≥ 70%: pest or weed control at 1 ppm [1] | pest or weed control at 1 ppm [2] | pest or weed control at 1 ppm [3] | pest or weed control at 1 ppm [4] | pest or weed control at 1 ppm [5] | pest or weed control at 100 ppm [7]

CN(C(=O)c1cccnc1)c1cccc(C(=O)Nc2c(I)cc(C(F)(C(F)(F)F)C(F)(F)F)cc2C(F)(F)F)c1F [7-1764]
≥ 70%: pest or weed control at 1 ppm [1] | pest or weed control at 1 ppm [2] | pest or weed control at 1 ppm [3] | pest or weed control at 1 ppm [4] | pest or weed control at 1 ppm [5] | pest or weed control at 100 ppm [7] | pest or weed control at 100 ppm [6]

O=C(Nc1c(I)cc(C(F)(C(F)(F)F)C(F)(F)F)cc1C(F)(F)F)c1cccc(NC(=O)c2c(F)cccc2F)c1 [6-446]
≥ 70%: pest or weed control at 1 ppm [1] | pest or weed control at 1 ppm [2] | pest or weed control at 10 ppm [3] | pest or weed control at 1 ppm [4] | pest or weed control at 1 ppm [5] | pest or weed control at 100 ppm [7]

N#Cc1cccc(C(=O)Nc2cccc(C(=O)Nc3c(I)cc(C(F)(C(F)(F)F)C(F)(F)C(F)(F)F)cc3C(F)(F)F)c2F)c1 (stereo not shown) [6-1828]
≥ 70%: pest or weed control at 1 ppm [1] | pest or weed control at 1 ppm [2] | pest or weed control at 1 ppm [3] | pest or weed control at 1 ppm [4] | pest or weed control at 1 ppm [5] | pest or weed control at 100 ppm [7] | pest or weed control at 100 ppm [6]

CN(C(=O)c1cccc(F)c1)c1cccc(C(=O)Nc2c(Br)cc(C(F)(C(F)(F)F)C(F)(F)C(F)(F)F)cc2C(F)(F)F)c1 (stereo not shown) [7-348]
≥ 70%: pest or weed control at 1 ppm [1] | pest or weed control at 1 ppm [2] | pest or weed control at 1 ppm [3] | pest or weed control at 1 ppm [4] | pest or weed control at 1 ppm [5] | pest or weed control at 100 ppm [7] | pest or weed control at 100 ppm [6]

O=C(Nc1cccc(C(=O)Nc2c(I)cc(C(F)(C(F)(F)F)C(F)(F)C(F)(F)F)cc2C(F)(F)F)c1F)c1ccccc1F (stereo not shown) [6-1809]
≥ 70%: pest or weed control at 1 ppm [1] | pest or weed control at 1 ppm [2] | pest or weed control at 1 ppm [3] | pest or weed control at 1 ppm [4] | pest or weed control at 1 ppm [5] | pest or weed control at 100 ppm [7] | pest or weed control at 100 ppm [6]

O=C(Nc1cccc(C(=O)Nc2c(Br)cc(C(F)(C(F)(F)F)C(F)(F)F)cc2C(F)(F)F)c1F)c1ccccc1 [6-1574]
≥ 70%: pest or weed control at 1 ppm [1] | pest or weed control at 1 ppm [2] | pest or weed control at 1 ppm [3] | pest or weed control at 1 ppm [4] | pest or weed control at 1 ppm [5] | pest or weed control at 100 ppm [7]

O=C(Nc1c(I)cc(C(F)(C(F)(F)F)C(F)(F)C(F)(F)F)cc1I)c1cccc(NC(=O)c2cccnc2Cl)c1 (stereo not shown) [6-90]
≥ 70%: pest or weed control at 1 ppm [1] | pest or weed control at 1 ppm [2] | pest or weed control at 1 ppm [3] | pest or weed control at 1 ppm [4] | pest or weed control at 1 ppm [5] | pest or weed control at 100 ppm [7]

O=C(Nc1cccc(C(=O)Nc2c(I)cc(C(F)(C(F)(F)F)C(F)(F)F)cc2I)c1F)c1ccc(F)cc1 [6-1263]
≥ 70%: pest or weed control at 1 ppm [1] | pest or weed control at 1 ppm [2] | pest or weed control at 1 ppm [3] | pest or weed control at 1 ppm [4] | pest or weed control at 1 ppm [5] | pest or weed control at 100 ppm [7]

O=C(Nc1cccc(C(=O)Nc2c(Br)cc(C(F)(C(F)(F)F)C(F)(F)C(F)(F)F)cc2C(F)(F)F)c1F)c1cccc(F)c1 (stereo not shown) [6-1654]
≥ 70%: pest or weed control at 1 ppm [1] | pest or weed control at 1 ppm [2] | pest or weed control at 1 ppm [3] | pest or weed control at 1 ppm [4] | pest or weed control at 1 ppm [5] | pest or weed control at 100 ppm [7]

CN(C(=O)c1ccc(F)nc1)c1cccc(C(=O)Nc2c(Br)cc(C(F)(C(F)(F)F)C(F)(F)F)cc2C(F)(F)F)c1F [7-1616]
≥ 70%: pest or weed control at 1 ppm [1] | pest or weed control at 1 ppm [2] | pest or weed control at 1 ppm [3] | pest or weed control at 1 ppm [4] | pest or weed control at 10 ppm [5] | pest or weed control at 100 ppm [7]
